Earlier results as cited in patent US20060099208A1, “Method of potentiating the therapeutic action of monoclonal and polyclonal antibodies” (priority 2004, published 2006).
Entries after “also recorded” stand apart in the source; their conditions may differ. Like-named read-outs stand apart in the source and are kept apart here.

What was measured:
skin papilloma = details: mice; pure fatty acid or fatty acid rich oils
ascitic tumor cells = details: experimental animals; pure fatty acid or fatty acid rich oils
tumor cells [1] = details: in-vitro; for killing of tumor cells: tumor cells and normal cells from American Type Culture Collection
tumor cells [2] = details: PUFA combined with anti-cancer drug
tumor cells [3] = details: mixed culture, normal and tumor cells grown together
hepatoma = details: rats; pure fatty acid or fatty acid rich oils

| Compound | survival of normal cells (normal cells; in-vitro) | growth of skin papilloma (skin papilloma) | growth of ascitic tumor cells in the peritoneum (ascitic tumor cells) | tumor cell proliferation (tumor cells [1]) | killing of tumor cells (tumor cells [1]) | cytotoxic action of anti-cancer drugs doxorubicin, vincristine and cis-platinum (tumor cells [2]) | selective tumoricidal action (tumor cells [3]) | formation and growth of hepatoma (hepatoma) | survival of normal cells (normal cells) | side effects (colon cancer; human, in vivo) | extension of colon cancer patients' lives (colon cancer; in combination with chemotherapy, trial of 900 patients) |
| --- | --- | --- | --- | --- | --- | --- | --- | --- | --- | --- | --- |
| CCCCC/C=C\C/C=C\C/C=C\C/C=C\CCCC(=O)O [AA, arachidonic acid] | without having any significant action | inhibit the growth | inhibit | decrease tumor cell proliferation | only tumor cells were killed; also recorded: selectively kill the tumor cells | can be augmented | effective to some extent | inhibit |  |  |  |
| CCCCC/C=C\C/C=C\C/C=C\CCCCCCC(=O)O [DGLA, dihomo-GLA] |  | inhibit the growth | inhibit | decrease tumor cell proliferation | only tumor cells were killed; also recorded: selectively kill the tumor cells |  |  | inhibit | without having any significant action |  |  |
| CC/C=C\C/C=C\C/C=C\C/C=C\C/C=C\C/C=C\CCC(=O)O [DHA, docosahexaenoic acid] | without having any significant action |  |  |  |  | can be augmented |  |  |  |  |  |
| CC/C=C\C/C=C\C/C=C\C/C=C\C/C=C\CCCC(=O)O [EPA, eicosapentaenoic acid] | without having any significant action |  |  |  |  | can be augmented |  |  |  |  |  |
| CCCCC/C=C\C/C=C\C/C=C\CCCCC(=O)O [GLA, gamma-linolenic acid] | without having any significant action |  | inhibit | decrease tumor cell proliferation | only tumor cells were killed; also recorded: selectively kill the tumor cells | can be augmented |  | inhibit |  |  |  |
| Avastin: humanized monoclonal antibody to VEGF developed by Genentech |  |  |  |  |  |  |  |  |  | many side effects | 5 months |
